Test results from patent publication US3998874A, “Phenylene di-ethers” (Gist-Brocades N.V., priority 1974, dated 1976).
Counter-ions that a name gives are not always drawn.

Assays:
[1] = biological target: T1, cardiac β-receptors (Cavia porcellus, UniProt H0W3H1); experiment: antagonism to cardiac β-receptors on isolated, spontaneously beating right atrium (isoprenaline chronotropism, pA2); details: isolated right atrium guinea pig, vs isoprenaline; R = isopropyl for A-E
T1 construct: on the isolated, spontaneously beating, right atrium of the guinea pig; from tissue; host or cells: guinea pig right atrium (isolated, spontaneously beating)
T1 sequence (H0W3H1 1-470): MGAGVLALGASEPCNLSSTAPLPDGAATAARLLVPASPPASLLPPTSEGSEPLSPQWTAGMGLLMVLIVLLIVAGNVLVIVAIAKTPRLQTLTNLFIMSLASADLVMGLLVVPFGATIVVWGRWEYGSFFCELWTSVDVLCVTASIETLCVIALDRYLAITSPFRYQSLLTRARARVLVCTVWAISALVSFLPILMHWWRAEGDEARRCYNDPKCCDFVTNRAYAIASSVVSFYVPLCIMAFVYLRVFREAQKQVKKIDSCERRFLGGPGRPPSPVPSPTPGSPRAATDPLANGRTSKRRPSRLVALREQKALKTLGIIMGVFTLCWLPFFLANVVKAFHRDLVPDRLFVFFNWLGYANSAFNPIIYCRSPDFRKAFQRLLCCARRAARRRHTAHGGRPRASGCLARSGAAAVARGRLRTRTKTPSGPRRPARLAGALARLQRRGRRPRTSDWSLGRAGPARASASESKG

[2] = biological target: T2, β-adrenergic (guinea pig tracheal chain) (Cavia porcellus, UniProt Q8K4Z4); experiment: β-adrenergic blocking activity on guinea pig tracheal chain (antagonism of isoprenaline relaxation, pA2); details: vs isoprenaline, R = isopropyl for A-E
T2 construct: determined on the guinea pig tracheal chain; from tissue; host or cells: guinea pig tracheal chain (isolated)
T2 sequence (Q8K4Z4 whole entry): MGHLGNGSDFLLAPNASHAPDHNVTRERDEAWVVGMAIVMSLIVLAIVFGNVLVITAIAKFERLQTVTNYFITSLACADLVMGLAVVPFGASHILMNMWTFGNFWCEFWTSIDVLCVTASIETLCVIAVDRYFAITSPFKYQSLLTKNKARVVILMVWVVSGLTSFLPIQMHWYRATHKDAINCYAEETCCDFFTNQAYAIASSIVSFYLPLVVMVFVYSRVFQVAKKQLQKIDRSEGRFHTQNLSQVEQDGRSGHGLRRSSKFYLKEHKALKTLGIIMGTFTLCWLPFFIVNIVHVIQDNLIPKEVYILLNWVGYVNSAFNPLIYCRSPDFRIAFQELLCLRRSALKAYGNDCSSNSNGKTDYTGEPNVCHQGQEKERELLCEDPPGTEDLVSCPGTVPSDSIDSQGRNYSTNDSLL
Protocol: The β-adrenergic blocking activity was determined on the guinea pig tracheal chain prepared as described by H. Timmerman and N. G. Scheffer, J. Pharm. […] Int. Pharmacodyn. […] The pA2-values were calculated according to Van Rossum from the parallel shift to the right of the log dose - response curves.

[3] = system: right atrial muscles from guinea pigs; experiment: anti-arrhythmic activity in vitro, ouabain-induced arrhythmia in right atrial muscles; parameters: species or system guinea pig; details: Cavia porcellus; minimal drug concentration (M) preventing any arrhythmia, ouabain 0.5 μg/ml, 37° C, pH 7.4; read-out: Antiarrh. act. -log min. dose (converted)
Protocol: The anti-arrhythmic activity in vitro was determined as follows. Right atrial muscles from guinea pigs were dissected and freed from the appendage. They were suspended in 100 ml of a modified Ringer-Locke solution (g/l: […] Spontaneous contractions were recorded on a Schwarzer ECG (Cardioscript III) using an […] Transducer (8101) in a Wheatstone bridge circuit. Tension was so adjusted that contractions reached maximal amplitude while keeping distortion of the baseline minimal. After a 40-min equilibrium period the test compound was added and for 30 minutes contractile force and rate were recorded at 1-min intervals for 10 seconds. Next, ouabain was added in a concentration of 0.5 μg/ml and force and rate were measured at 1-min intervals over a 60-min period. […] This was confirmed at least once. Control experiments without test compounds were carried out daily.

[4] = system: aconitine-induced arrhythmias; experiment: in vivo antagonism of aconitine-induced arrhythmias; parameters: species or system male rats; details: for % protection: vs control; for Dose of aconitine inducing arrhythmias: aconitine infusion 5 μg/kg/min
Protocol: This test was carried out in male rats under urethane anaesthesia as described by B. Vargaftig and J. L. Coignet, Eur. J. Pharmacol., 6, 49 (1969). It was estimated what dose of aconitine in an i.v. infusion (5 μ g/kg/min, rate 0.2 ml/min) would induce arrhythmias. Three minutes before the infusion physiological saline with or without test compound was injected i.v.

[5] = hygroscopicity (observation in the synthesis example); type: physicochemical; details: dihydrochloride

## CC(C)NCC(O)COc1ccccc1OCC(O)CNC(C)C (stereo not shown) [A, 1,1'-(o-phenylenedioxy)-bis-[3-(isoproyl-amino)propan-2-ol] dihydrochloride]
[1]
  Kb: 0.324 µM
[2]
  pA2 trachea: 6.73 (±0.05)
[3]
  minimal effective concentration: 0.0002 M
[4]; 4 mg/kg i.v.
  % protection: 12.9%
[4]; 8 mg/kg i.v.
  % protection: 35.5%
[4]; 16 mg/kg i.v.
  % protection: 110.8%
[4]; test compound 4 mg/kg i.v.
  Dose of aconitine inducing arrhythmias: 0.0315 mg/kg
[4]; test compound 8 mg/kg i.v.
  Dose of aconitine inducing arrhythmias: 0.0378 mg/kg
[4]; test compound 16 mg/kg i.v.
  Dose of aconitine inducing arrhythmias: 0.0588 mg/kg

## Cc1cccc(OCC(O)CNC(C)C)c1OCC(O)CNC(C)C.Cl.Cl (stereo not shown) [B, 1,1'-[(3-methyl-o-phenylene)dioxy]-bis-[3-(isopropylamino)propan-2-ol] dihydrochloride]
[1]
  Kb: 3.31 µM
[2]
  pA2 trachea: 5.80 (±0.08)
[3]
  minimal effective concentration: 2e-05 M

## CC(C)NCC(O)COc1cccc(C(C)C)c1OCC(O)CNC(C)C (stereo not shown) [C, 1,1'-[(3-isopropyl-o-phenylene)dioxy]-bis-[3-(isopropylamino)-propan-2-ol]dihydrochloride]
[1]
  Kb: 25.7 µM
[2]
  pA2 trachea: 5.35 (±0.11)
[3]
  minimal effective concentration: 1e-05 M
[4]; 0.5 mg/kg i.v.
  % protection: 44.0%
[4]; 1.0 mg/kg i.v.
  % protection: 79.6%
[4]; 2.0 mg/kg i.v.
  % protection: 135.5%
[4]; test compound 0.5 mg/kg i.v.
  Dose of aconitine inducing arrhythmias: 0.0458 mg/kg
[4]; test compound 1.0 mg/kg i.v.
  Dose of aconitine inducing arrhythmias: 0.0571 mg/kg
[4]; test compound 2.0 mg/kg i.v.
  Dose of aconitine inducing arrhythmias: 0.0749 mg/kg

## Cc1ccc(OCC(O)CNC(C)C)c(OCC(O)CNC(C)C)c1.Cl.Cl (stereo not shown) [D, 1,1'-[(4-methyl-o-phenylene)dioxy]-bis-[3-(isopropylamino)-propan-2-ol] dihydrochloride]
[1]
  Kb: 0.603 µM
[2]
  pA2 trachea: 6.66 (±0.09)
[3]
  minimal effective concentration: 5.01e-05 M

## CC(C)NCC(O)COc1ccc(C(C)C)cc1OCC(O)CNC(C)C.Cl.Cl (stereo not shown) [E, 1,1'-[(4-isopropyl-o-phenylene)dioxy]-bis-[3-(isopropylamino)-propan-2-ol] dihydrochloride]
[1]
  Kb: 2.29 µM
[2]
  pA2 trachea: 6.48 (±0.09)
[5]
  hygroscopicity: very hydroscopic
[3]
  minimal effective concentration: 2e-05 M

## CC(C)(C)NCC(O)COc1ccccc1OCC(O)CNC(C)(C)C (stereo not shown) [F, 1,1'-(o-phenylenedioxy)-bis-[3-(tert.-butylamino)-propan-2-ol]dihydrochloride]
[4]; 4 mg/kg i.v.
  % protection: 41.7%
[4]; 8 mg/kg i.v.
  % protection: 104.2%
[4]; 16 mg/kg i.v.
  % protection: 158.6%
[4]; test compound 4 mg/kg i.v.
  Dose of aconitine inducing arrhythmias: 0.034 mg/kg
[4]; test compound 8 mg/kg i.v.
  Dose of aconitine inducing arrhythmias: 0.049 mg/kg
[4]; test compound 16 mg/kg i.v.
  Dose of aconitine inducing arrhythmias: 0.062 mg/kg

## CC(C)NCC(O)COc1ccccc1 (stereo not shown) [G, 1-(isopropylamino)-3-phenoxy-2-propanol, reference compound]
[1]
  Kb: 0.000977 µM
[2]; read-out: pA2 trachea (converted)
  Kb: 0.0245 µM
[3]
  minimal effective concentration: 0.000302 M
